Measurements as given in US7550509B2, “Carisoprodol articles and methods” (Mutual Pharmaceutical Company, Inc., priority 2006, dated 2009).
Where two headings read alike, the source gives them in different places.

Experiments:
[1] = cited from earlier work
[2] = Biostudy of carisoprodol (SOMA®) pharmacokinetics under non-fasted and fasted conditions, randomized single-dose two-way crossover; format: in vivo, human (healthy adults); details: for AUC(0-inf) / AUC(0-t) / Tmax / Cmax: plasma; for AUC(0-inf): read-out: AUC0-INF, geometric mean (ln-transformed); for AUC(0-t): read-out: AUC0-t, geometric mean (ln-transformed); for Tmax: read-out: Tmax, least sq. mean (non-transformed); for Cmax: single dose SOMA®, 22 subjects, read-out: Cmax, geometric mean (ln-transformed)
Method: A biostudy was conducted under fasted and non-fasted conditions.
The dosage form is administered with 240 ml of water during the fasting period, and water can be allowed ad libitum after 2 hours.
As used herein, for the purposes of biostudy and the determination of bioequivalence, a non-fasted patient is defined as a patient who fasts for at least 10 hours overnight and then consumes an entire test meal within 30 minutes of first ingestion. The dosage form is administered with 240 mL of water at 30 minutes after first ingestion of the meal. No food is then allowed for at least 4 hours post-dose. Water can be allowed ad libitum after 2 hours. A high fat test meal provides approximately 1000 calories to the patient of which approximately 50% of the caloric content is derived from fat content of the meal. A representative high fat high calorie test meal comprises 2 eggs fried in butter, 2 strips of bacon, 2 slices of toast with butter, 4 ounces of hash brown potatoes, and 8 ounces of whole milk to provide 150 protein calories, 250 carbohydrate calories, and 500 to 600 fat calories.
The study was designed as a randomized, single-dose two-way crossover to compare the pharmacokinetic parameters of SOMA®. Twenty-four healthy adults participated in this comparison study and 22 of the subjects completed the study. Subjects received two separate drug administration treatments in assigned periods, one treatment per period, according to the randomization schedule. Dosing days were separated by a washout period of at least seven days. Blood samples were drawn prior to dosing (pre-dose) and at 0.33, 0.67, 1, 1.5, 2, 2.5, 3, 3.5, 4, 5, 6, 7, 8, 10, 12, 18, and 24 hours post-dose. The samples were then analyzed for carisoprodol and meprobamate.
The following pharmacokinetic parameters may be determined from the plasma concentration data:
The area under the plasma concentration versus time curve [AUCt] may be calculated using the linear trapezoidal rule from the zero time point to the last measured concentration.
The area under the plasma concentration versus time curve from zero to infinity [AUC0-INF] may be calculated by adding Ct/Kelm to AUC where Ct is the last measured concentration and Kelm is the elimination rate constant.
The maximum observed plasma concentration [Cmax] may be obtained by inspection. The Cmax may also be designated as CMAX.
The time to maximum plasma concentration [Tmax] may be obtained by inspection. If the same maximum plasma concentration occurs at more than one time point, the first may be chosen as Tmax.
The terminal elimination rate constant [Kelm] may be obtained from the slope of the line, fitted by linear least squares regression, through the terminal points of the 1n(base e) of the concentration versus time plot for these points.
The half-life [T1/2] may be calculated by the equation T1/2=0.693/Kelm.

[3] = carisoprodol, non-fasted compared to fasted
[4] = carisoprodol, non-fasted vs fasted
[5] = human, oral, carisoprodol in plasma, fasted
[6] = human, oral, carisoprodol in plasma, non-fasted

## CCCC(C)(COC(N)=O)COC(=O)NC(C)C (stereo not drawn) [carisoprodol, N-isopropyl-2-methyl-2-propyl-1,3-propanediol dicarbamate]
[1]; alcohol, chloroform, and acetone
  solubility in organic solvents (in words): freely soluble
[1]; between 25 to 50° C.
  solubility in water: 300 to 1400 µg/mL
[1]; water
  solubility in water (in words): very sparingly soluble
[2]; carisoprodol in plasma, fasted
  T½, least sq. mean: 1.95 h
  kelm (elimination rate constant), least sq. mean: 0.376
[2]; carisoprodol in plasma, non-fasted
  kelm (elimination rate constant), least sq. mean: 0.3713
[2]; [3]
  decrease in the geometric mean of Cmax in the presence of food: 16%
  effect of food on AUC (AUC0-t and AUC0-INF) (in words): substantially unchanged
  effect of food on Cmax (in words): decreases
[2]; [4]
  AUC0-INF, % Ratio of geometric means: 96.8%
  AUC0-t, % Ratio of geometric means: 96.1%
  Cmax, % Ratio of geometric means: 83.8%
  Tmax, % Ratio: 137.5%
  T½, % Ratio: 100%
  kelm, % Ratio: 98.7%
[2]; human, oral, carisoprodol in plasma, non-fasted, read-out: T½, least sq. mean (converted)
  half-life: 1.95 h
[2]; [5]
  AUC(0-inf): 6510 ng·h/mL
  AUC(0-t): 6380 ng·h/mL
  Tmax: 1.63 h
  Cmax: 2000 ng/mL
[2]; human, oral, carisoprodol in plasma, non-fasted (high fat meal)
  Cmax: 1680 ng/mL
[2]; [6]
  AUC(0-inf): 6310 ng·h/mL
  AUC(0-t): 6140 ng·h/mL
  Tmax: 2.24 h
